In patent US20040028631A1, “Cosmetic formulations” (priority 2000, published 2004):
Where two headings read alike, the source gives them in different places.

Experiments:
[1] = Optimum concentration (substance data tables; stabilizing effect)
From the text: With respect to the stabilizing effect of optically active DIP it is most important that the substance is present in the form of potassium salt.

model proteins = assay: Protection of model proteins; format: biochemical; settings: protecting model proteins
Procedure: Application related examinations were conducted with di-glycerol phosphate (DGP) aimed at protecting model proteins. As a penetration intensifier di-glycerol phosphate moreover ensures that these macro-molecules are also transported through several skin layers until they have reached their target destination.

Solubility in water = format: physicochemical
[2] = Chemical, physical, pH and light stability; format: physicochemical
Water binding capability = format: physicochemical
From the text: Moreover, the compound is thus of interest for the regulation and balancing of the skin's moisture characteristics. This is at least of additional advantage when the compound is used as a cosmetic agent.

[3] = Biocompatibility / allergenic potential
proteins = assay: Protection against thermally induced denaturation of proteins; format: biochemical
From the text: Little is known at the present time about the effect of DIP in general. This mainly due to the fact that only very little of this compound is available.

| solubility in water (Solubility in water) | chemical and physical stability [2] | capability of binding water (Water binding capability) | biocompatibility [3] | chemical and physical stability ([2]; listed as di-myo-inositol phosphate) | SMILES | Optimum concentration [1] [mM] | protective potential compared with glycerine (model proteins) | protective effect in respect of the thermally induced denaturation of proteins (proteins; first experiments) | protective effect in comparison with other compatible solutes (proteins; thermally induced denaturation of proteins) |
| --- | --- | --- | --- | --- | --- | --- | --- | --- | --- |
| Excellent | High | highly capable of binding water | High |  | O=P(O)(OCC(O)CO)OCC(O)CO (stereo not shown) [DGP, di-glycerol phosphate] | 100 to 200 | by far better protective potential |  |  |
| Excellent | High | highly capable of binding water |  | great stability | O=P(O)(O[C@@H]1[C@H](O)[C@H](O)[C@@H](O)[C@H](O)[C@H]1O)O[C@@H]1[C@@H](O)[C@H](O)[C@@H](O)[C@H](O)[C@@H]1O [DIP, di-myo-inositol phosphate] | 250 to 400 |  | excellent | far and decidedly better |
